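Results reflect a 48-hour exposure of cells in 96-well plates to compound at five concentrations. GI50 = concentration required for 50% inhibition of growth. The concentration for full growth arrest is given as TGI.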
Columns and labels:
SN12K1 renal = assay: NCI tumour cell line growth inhibition, 48 h
P388 leukemia = assay: NCI tumour cell line growth inhibition, 48 h

SMILES | GI50 (SN12K1 renal) [nM] | TGI (SN12K1 renal) [µM] | TGI (P388 leukemia) [µM]
CC1OC(O[C@@H]2C=C3CC[C@@H]4[C@H](CC[C@]5(C)[C@@H](c6ccc(=O)oc6)CC[C@]45O)[C@@]3(C)CC2)C(O)C(O)C1O (some centres not stated) | 0.941 | 0.003 | > 74.8
COc1cc([C@@H]2c3cc4c(cc3[C@@H](OC3OC5COC(C)OC5C(O)C3O)[C@H]3COC(=O)[C@H]23)OCO4)cc(OC)c1O (some centres not stated) | – | 66.6 | 9.88
C=C1C(C)C2C(Cc3ccccc3)NC(=O)C23C(OC(C)=O)C=CC(C)(O)C(=O)C(C)C/C=C/C3C1O (configuration not stated) | – | 58.3 | 51.7

— PubChem BioAssay (NCI)
